Source: patent US8911953B2, “TDF-related compounds and analogs thereof, analogs and bioactive fragments” (Thrasos Innovation, Inc., priority 2005, dated 2014)
Positions of bridges follow the written chain, without caps; N, C: chain ends. No end group written: not given here.

Test system: rats with coronary artery ligation
Test: Left anterior descending (LAD) coronary occlusion model of myocardial injury
Format: in vivo, rat
Details: for reduction in AN/AR ratio as compared to PBS-treated animals: Day 7
Description: Schematic of the Left Anterior Descending […] (LAD) occlusion model of myocardial injury. The image represents a cross section through the heart of rats showing that treatment with TDFRP or BMP prevents ischemic injury. Left anterior descending arteries were occluded for 20 minutes to induce ischemia. Upon removal of the ligature, blood flow into the heart causes reperfusion injury and apoptosis. After seven days, the heart was stained with Evan's blue dye to differentiate the perfused, unaffected area from the occluded region (area at risk). Four doses of TDFRP (SEQ ID NO:45) were used in the treated animals (pre-occlusion, and 24, 48 and 72 hrs post-occlusion). A) left anterior descending coronary artery ligated to create ischemia, B) infarct areas (IA), C) the unaffected, perfused region. Dyed blue at sacrifice, D) ventricular lumen, E) approximate regional boundary, F) the affected (ischemic) region (AR). Where reperfusion injury leads to apoptosis
The efficacy of TDFRP compound (SEQ ID NO:45) in ameliorating the effects of myocardial ischemia was investigated in the rat after ligation of the coronary artery. […] unmanipulated rats, sorted into two large groups by initial body weight (>300 g pre-surgery) were evaluated. Fourteen rats underwent surgery on week, 12 rats underwent surgery on week 2 and rats were sorted into 3 treatment groups: Group 1, PBS; Group 2, positive control TDF-1; Group 3, test article TDFRP (SEQ ID NO:45) (see Table 13).
Three days prior to surgery, a serum sample was collected from the tail vein of each rat (pre-bleed). On the day of surgery, each rat was administered compound intravenously 2 hr prior to surgery. Surgery was performed sequentially after intubation and ventilation with 0.5% isofluorane anesthetic. Lead II ECG was monitored throughout the surgery. A thoracotomy was performed and the main left coronary artery was occluded for 20 min using a snare technique (FIG. 19). Successful occlusion of the artery was confirmed by ST elevation in lead II ECG within the first 5 minutes of ligation, and by frequent ventricular arrhythmia after 10 minutes of ligation. The snare was released to restore blood flow. The original suture loop was left in place for subsequent re-occlusion on Day 7. After initiation of reperfusion, the chest cavity was closed with 2 layers of suture. Rats were weaned from the ventilator and observed until fully conscious and mobile. Antibiotic (QD) and analgesic (Q8D) were provided. Additional serum samples were collected 6, 24, 72 and 120 hours post occlusion. Additional compound, positive control or vehicle treatments were delivered by intravenous injection in the tail vein at 24, 72 and 120 hours post occlusion.
On Day 7, each rat was anesthetized (ketamine:xyline), the chest cavity re-opened and a terminal blood sample (1 ml) was withdrawn from the abdominal vein. Gross pathology (i.e. inflammation) was noted and graded on a 4 point inflammation scale: 0=no inflammation, 1=slight, 2=moderate, 3=severe and 4=complete pericarditis. The left coronary artery was then re-occluded using the existing stitch and a concentrated solution of Evans Blue dye in saline (20 mg/ml; 0.5 ml/rat) was injected into the heart apex to stain the non-ischemic cardiac tissue blue. The heart was then arrested by injection of a saturated solution of potassium chloride into the right ventricle. The heart was then excised, wrapped in cellophane and stored at −20° C. for 1.5 hour. The cold heart was cut into 10 cross-sectional slices (2 mm/slice) and each section was numbered and incubated separately in triphenyltetrazolium chloride (1% TTC in PBS) for 10 minutes at 37° C. prior to fixing in 4% formaldehyde. Subsequently, each slice was photographed. For each slice, the “area at risk (AR)” and the “area occupied by necrosis (AN)” were measured by morphometry. The ratio of AN to AR is a measure of the degree of damage resulting from the occlusion (FIG. 20).

Molecule	reduction in AN/AR ratio as compared to PBS-treated animals (10 mg/kg i.v.) [%]	reduction in inflammation score as compared to PBS-treated animals (10 mg/kg i.v., Day 7, 4 point inflammation scale) [%]	inflammation and cytotoxic effects toward cardiomyocytes following myocardial infarction (myocardial ischemia and reperfusion injury)	degree of cardiac inflammation (rat, in vivo)	necrotic area to area at risk ratio (IA/AR) (rat, in vivo)	reduction in AN/AR ratio as compared to PBS-treated animals (160 μg/kg i.v.) [%]
CYFDDSSNVLCKKYRS (disulfide 1-11 (inferred); not fully specified) [SEQ ID NO:45]	84	78	ameliorate inflammation and cytotoxic effects	reduces	reduces	–
BMP-7: recombinant human mature BMP-7 (BMP-7 or TDF-1), positive control therapy (protein) STGSKQRSQNRSKTPKNQEALRMANVAENSSSDQRQACKKHELYVSFRDLGWQDWIIAPEGYAAYYCEGECAFPLNSYMNATNHAIVQTLVHFINPETVPKPCCAPTQLNAISVLYFDDSSNVILKKYRNMVVRACGCH	–	–	–	–	–	7
